Our source for the T/C values is PubChem BioAssay AID330 (DTP/NCI, 2004).

Several values for one entry are separate records, joined by “and”; a condition that tells them apart may be missing. Equal entries are not always repeated. Toxic doses and inconclusive results are not listed.

This assay relates to P388 leukemia ip, CD2F1 mice, survival T/C. As to the kind of experiment: NCI In Vivo Anticancer Drug Screen. Data for tumor model P388 Leukemia (intraperitoneal) in CD2F1 (CDF1) mice. The following applies: endpoint: median survival time, higher = longer survival. In a few lines: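 Mice carrying the transplanted tumor received test compound or vehicle. Survival was recorded in each group, and the value is the treated-group measurement divided by that of the vehicle-treated control group.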

[1] abbreviates: dose: 50.0 mg/kg/injection, schedule: Q01DX009 (ip), vehicle: saline with Tween-80.
Where [2] appears, read: dose: 100.0 mg/kg/injection, schedule: Q01DX009 (ip), vehicle: saline with Tween-80.
[3] abbreviates: dose: 200.0 mg/kg/injection, schedule: Q01DX009 (ip), vehicle: saline with Tween-80.
Where [4] appears, read: dose: 50.0 mg/kg/injection, schedule: Q01DX005 (ip), vehicle: saline.
[5] abbreviates: dose: 100.0 mg/kg/injection, schedule: Q01DX005 (ip), vehicle: saline.
[6] abbreviates: dose: 200.0 mg/kg/injection, schedule: Q01DX005 (ip), vehicle: saline.
Setting [7] is: dose: 60.0 mg/kg/injection, schedule: Q01DX005 (ip), vehicle: saline.
The mark [8] stands for this setting: dose: 50.0 mg/kg/injection, schedule: Q01DX009 (ip), vehicle: saline.
Setting [9] is: dose: 100.0 mg/kg/injection, schedule: Q01DX009 (ip), vehicle: saline.

As to `O=[N+]([O-])c1ccc(C=Nc2ccccc2)cc1`, the T/C under setting [1] was 101 % of control; the T/C under setting [2] is 101 % of control; the T/C under setting [3] is 97 % of control; the T/C (dose: 400.0 mg/kg/injection, schedule: Q01DX009 (ip), vehicle: saline with Tween-80) was 96 % of control.
As to `NC(=O)CS(=O)CC(N)C(=O)O` (configuration not stated), the T/C was 100 % of control under setting [4], 105 % of control under setting [5] and 95 % of control under setting [6].
As for `N#CN=[N+]([O-])c1cccc(Br)c1`, the T/C (dose: 6.25 mg/kg/injection, schedule: Q04DX003 (ip), vehicle: Klucel (hydroxypropylcellulose) (HPC)) was 102 % of control; the T/C (dose: 12.5 mg/kg/injection, schedule: Q04DX003 (ip), vehicle: Klucel (hydroxypropylcellulose) (HPC)) was 101 % of control; the T/C (dose: 25.0 mg/kg/injection, schedule: Q04DX003 (ip), vehicle: Klucel (hydroxypropylcellulose) (HPC)) is 105 % of control; the T/C (dose: 50.0 mg/kg/injection, schedule: Q04DX003 (ip), vehicle: Klucel (hydroxypropylcellulose) (HPC)) was 100 % of control.
On to `O=c1cn[nH]c(=O)[nH]1`, for which the T/C is 100 % of control (dose: 62.5 mg/kg/injection, schedule: Q01DX010 (ip), vehicle: saline); 91 % of control (dose: 125.0 mg/kg/injection, schedule: Q01DX010 (ip), vehicle: saline); 91 % of control (dose: 250.0 mg/kg/injection, schedule: Q01DX010 (ip), vehicle: saline).
Take `CC(O)c1nc2c3ccccc3ccc2n1C` (configuration not stated): the T/C reads like this: (dose: 50.0 mg/kg/injection, schedule: Q01DX005 (ip), vehicle: saline with Tween-80) 96 % of control; (dose: 100.0 mg/kg/injection, schedule: Q01DX005 (ip), vehicle: saline with Tween-80) 93 % of control; (dose: 200.0 mg/kg/injection, schedule: Q01DX005 (ip), vehicle: saline with Tween-80) 92 % of control.
Regarding `COc1ccc(N=NC2C(=O)N(C(=O)c3ccncc3)N=C2C)cc1` (configuration not stated), the T/C under setting [1] is 95 % of control, the T/C under setting [2] is 95 % of control and the T/C under setting [3] was 96 % of control.
As to `COc1ccc(/C(C)=N/NS(=O)(=O)c2ccc(C)cc2)cc1OC`, the T/C reads like this: (dose: 25.0 mg/kg/injection, schedule: Q01DX009 (ip), vehicle: other) 97 % of control; (dose: 50.0 mg/kg/injection, schedule: Q01DX009 (ip), vehicle: other) 96 % of control; (dose: 100.0 mg/kg/injection, schedule: Q01DX009 (ip), vehicle: other) 93 % of control; (dose: 200.0 mg/kg/injection, schedule: Q01DX009 (ip), vehicle: other) 97 % of control; (dose: 400.0 mg/kg/injection, schedule: Q01DX009 (ip), vehicle: other) 88 % of control.
`O=C(O)c1ccccc1-c1nc2ccccc2[nH]1`: the T/C (dose: 100.0 mg/kg/injection, schedule: Q01DX001 (ip), vehicle: saline with Tween-80) is 99 % of control.
`CN(CCC#N)c1ccc(/C=C(\C#N)C(N)=O)cc1`: the T/C runs as follows: (dose: 20.0 mg/kg/injection, schedule: Q01DX009 (ip), vehicle: saline with Tween-80) 101 % of control; (dose: 25.0 mg/kg/injection, schedule: Q01DX009 (ip), vehicle: saline with Tween-80) 97 % of control; (dose: 40.0 mg/kg/injection, schedule: Q01DX009 (ip), vehicle: saline with Tween-80) 89 % of control; under setting [1], 98 % of control; under setting [2], 97 % of control; (dose: 160.0 mg/kg/injection, schedule: Q01DX009 (ip), vehicle: saline with Tween-80) 90 % of control. Moreover, the T/C under setting [3] was 97 % of control.
Turning to `CCC(C)C(N)C(=O)N1CCCC1C(=O)NC(C(=O)O)C(C)CC` (configuration not stated), the T/C reads like this: (dose: 8.25 mg/kg/injection, schedule: Q01DX005 (ip), vehicle: saline) 99 % of control; (dose: 16.5 mg/kg/injection, schedule: Q01DX005 (ip), vehicle: saline) 102 % of control; (dose: 33.0 mg/kg/injection, schedule: Q01DX005 (ip), vehicle: saline) 94 % of control; (dose: 66.0 mg/kg/injection, schedule: Q01DX005 (ip), vehicle: saline) 102 % of control.
Consider `CC[N+](C)(CC)CC(C)C1NS(=O)(=O)c2ccccc21` (configuration not stated), for which the T/C is 104 % of control (dose: 25.0 mg/kg/injection, schedule: Q04DX003 (ip), vehicle: saline); 98 % of control (dose: 50.0 mg/kg/injection, schedule: Q04DX003 (ip), vehicle: saline); 98 % of control and 100 % of control (dose: 100.0 mg/kg/injection, schedule: Q04DX003 (ip), vehicle: saline).
With `CCCC(O)C(NC(=O)c1ccccc1)C(=O)O` (configuration not stated), the T/C reads like this: under setting [1], 92 % of control; under setting [2], 98 % of control and 95 % of control; under setting [3], 95 % of control and 98 % of control.
`CC(C)(C)N=C(CCN1CCN(c2ccccc2)CC1)Nc1ccccc1Cl`: the T/C was 109 % of control under setting [1], 108 % of control under setting [2] and 100 % of control under setting [3].
Regarding `O=S(O)Cc1ccccc1CSSSCc1ccccc1CS(=O)O`, the T/C was 114 % of control (dose: 25.0 mg/kg/injection, schedule: Q01DX005 (ip), vehicle: saline); 114 % of control under setting [4]; 114 % of control under setting [5]; 112 % of control under setting [6].
For the molecule `CCOC(=O)c1ccc(N(CCOS(C)(=O)=O)CCOS(C)(=O)=O)cc1`, the T/C runs as follows: under setting [1], 190 % of control; under setting [2], 215 % of control; (dose: 100.0 mg/kg/injection, schedule: Q04DX003 (ip), vehicle: saline with Tween-80) 154 % of control; (dose: 132.0 mg/kg/injection, schedule: Q04DX003 (ip), vehicle: saline with Tween-80) 186 % of control; under setting [3], 95 % of control; (dose: 200.0 mg/kg/injection, schedule: Q04DX003 (ip), vehicle: saline with Tween-80) 150 % of control and 195 % of control. The T/C (dose: 300.0 mg/kg/injection, schedule: Q04DX003 (ip), vehicle: saline with Tween-80) is 172 % of control.
Regarding `COC(=O)c1cc(-c2cccnc2)[nH]c(=O)c1C#N`, the T/C was 104 % of control under setting [7] and 100 % of control (dose: 120.0 mg/kg/injection, schedule: Q01DX005 (ip), vehicle: saline).
With `OC12CC3CC(CN1)CC(C3)C2`, the T/C is, setting by setting: (dose: 50.0 mg/kg/injection, schedule: Q01DX005 (ip), vehicle: Klucel (hydroxypropylcellulose) (HPC)) 109 % of control; (dose: 100.0 mg/kg/injection, schedule: Q01DX005 (ip), vehicle: Klucel (hydroxypropylcellulose) (HPC)) 99 % of control; (dose: 200.0 mg/kg/injection, schedule: Q01DX005 (ip), vehicle: Klucel (hydroxypropylcellulose) (HPC)) 95 % of control.
On to `O=c1[nH]c(=O)c2nc3c([N+](=O)[O-])ccc(-c4cccc5ccccc45)c3nc2[nH]1`, for which the T/C is 109 % of control under setting [8] and 100 % of control under setting [9].
In the case of `NC(=O)NC(c1ccccc1)C(O)(c1ccccc1)c1ccccc1` (configuration not stated), the T/C is 87 % of control under setting [1], 93 % of control under setting [2] and 96 % of control under setting [3].
For `O=C(Nc1cc2cc([N+](=O)[O-])ccc2oc1=O)c1cccs1`, the T/C is, setting by setting: (dose: 15.0 mg/kg/injection, schedule: Q01DX005 (ip), vehicle: saline with Tween-80) 99 % of control; (dose: 30.0 mg/kg/injection, schedule: Q01DX005 (ip), vehicle: saline with Tween-80) 90 % of control; (dose: 60.0 mg/kg/injection, schedule: Q01DX005 (ip), vehicle: saline with Tween-80) 91 % of control.
On to `COc1ccccc1C(=O)CCN(C)C`, for which the T/C reads like this: (dose: 15.0 mg/kg/injection, schedule: Q01DX005 (ip), vehicle: saline) 98 % of control; (dose: 30.0 mg/kg/injection, schedule: Q01DX005 (ip), vehicle: saline) 112 % of control; under setting [7], 114 % of control and 97 % of control.
Regarding `O=C1CCC2=C3C4CCCC5OC6CC(=O)CCC6=C(C6CCCC(OC2C1)C36)C54` (configuration not stated), the T/C is, setting by setting: under setting [8], 96 % of control; under setting [9], 100 % of control; (dose: 200.0 mg/kg/injection, schedule: Q01DX009 (ip), vehicle: saline) 96 % of control; (dose: 400.0 mg/kg/injection, schedule: Q01DX009 (ip), vehicle: saline) 100 % of control.
